From paper PMC8309005, “Novel Non-Congeneric Derivatives of the Choline Kinase Alpha Inhibitor ICL-CCIC-0019” (Pharmaceutics, 2021)
pIC50: −log10 of the molar value.

Legend:
CHKA = system: CHKA; design: method as in ref 18, 25 (HC-3), 20, 21 (MN58B), 23 (RSM-932A); conditions: CHKA inhibitors of Figure 1; 25 (HC-3), 20, 21 (MN58B), 23 (RSM-932A); cited from earlier work
SKBR3 = system: SKBR3; design: method as in PMID 22278967, PMID 9393874; conditions: cited from earlier work
NIH3T3 = system: NIH3T3; design: method as in PMID 22278967, PMID 9393874; conditions: cited from earlier work
[1] = system: C4-2B prostate cancer cells; assay: Cellular uptake and metabolism study in C4-2B with or without serum (HPLC); conditions: 50 μM, 4 h
Experimental: Cell lysate sample preparation: C4-2B prostate cancer cells were seeded into cell culture dishes (150 × 25 mm) at a density of 7 × 10^6 per dish. The cells were allowed to settle and grow for another 48 h. The cells were treated with ICL-CCIC-0019, CK146, CK147 and CK148 (50 μM of 7 mL RPMI medium with or without 10% FCS) for 4 h in the incubator. After 4-h incubation, the aliquots of medium were collected (see the medium sample preparation section). Cells were scraped, washed with ice-cold PBS three times and collected by centrifugation (4 °C, 4000× g). The cell pellets were resuspended in 500 μL of chilled acetonitrile:PBS (50:50, v/v) for cell disruption and homogenization. The cell disruption was performed by a Precellys® 24 homogenizer (Bertin Technologies, Montigny-le-Bretonneux, France) at 4 °C. After acetonitrile evaporation at room temperature, 50 μL of cell lysis was taken for protein analysis. Another 100 μL of the supernatant obtained after centrifuge (4 °C, 15,000× g) was resuspended in 100 μL formic acid:water (0.2%, v/v). Next, 100 μL of the filtered solution was analyzed by HPLC system described in Supplementary HPLC method D. Three injections were performed for each sample. Intracellular drug was normalized to cellular protein of each plate using BCA assay. Medium sample preparation for HPLC analysis: 250-μL aliquots of medium (with or without 10% FCS) were transferred into 1.5-mL tube containing 250 μL acetonitrile. After a brief vortex, the tube was placed at 4 °C for 30 min for protein precipitation. One hundred microliters of the resulting supernatant from centrifuge (4 °C, 15,000× g) were resuspended in 100 μL formic acid: water (0.2%, v/v). One hundred microliters of the filtered sample were analyzed by HPLC system described in Supplementary HPLC method D. Three injections were performed for each sample.

Row | Compound | pIC50 (CHKA) | GI50 (SKBR3) [µM] | GI50 (NIH3T3) [µM] | cellular uptake, mean ± SD of two experiment groups ([1]; FCS positive and negative groups) [% μg^−1 protein] | detection in cell lysates by HPLC (in words) ([1]; both FCS groups)
1 | C[N+]1(C)CCOC(O)(c2ccc(-c3ccc(C4(O)C[N+](C)(C)CCO4)cc3)cc2)C1 (centres unmarked) [HC-3, Hemicholinium-3] | 6.02 | > 500 | 600 |  | 
2 | CN(C)c1cc[n+](CCCCCCCCCCCCCC[n+]2ccc(N3CCN(C(=O)CSC4CC(=O)N(CCC(=O)NCCCCCC(=O)NCCCCC(NC(=O)NC(CCC(=O)OC(C)(C)C)C(=O)OC(C)(C)C)C(=O)OC(C)(C)C)C4=O)CC3)cc2)cc1 (centres unmarked) [CK148] |  |  |  | 42.5 ± 11.5 | detected
